Test results published in US20050095240A1, “NaCT as a target for lifespan expansion and weight reduction” (Medical College of Georgia Research, priority 2002, published 2005).

Columns and labels:
hNaDC3 = target: T1, hNaDC3 (Homo sapiens, UniProt Q8WWT9); assay: cell-based
T1 sequence (Q8WWT9 1-602): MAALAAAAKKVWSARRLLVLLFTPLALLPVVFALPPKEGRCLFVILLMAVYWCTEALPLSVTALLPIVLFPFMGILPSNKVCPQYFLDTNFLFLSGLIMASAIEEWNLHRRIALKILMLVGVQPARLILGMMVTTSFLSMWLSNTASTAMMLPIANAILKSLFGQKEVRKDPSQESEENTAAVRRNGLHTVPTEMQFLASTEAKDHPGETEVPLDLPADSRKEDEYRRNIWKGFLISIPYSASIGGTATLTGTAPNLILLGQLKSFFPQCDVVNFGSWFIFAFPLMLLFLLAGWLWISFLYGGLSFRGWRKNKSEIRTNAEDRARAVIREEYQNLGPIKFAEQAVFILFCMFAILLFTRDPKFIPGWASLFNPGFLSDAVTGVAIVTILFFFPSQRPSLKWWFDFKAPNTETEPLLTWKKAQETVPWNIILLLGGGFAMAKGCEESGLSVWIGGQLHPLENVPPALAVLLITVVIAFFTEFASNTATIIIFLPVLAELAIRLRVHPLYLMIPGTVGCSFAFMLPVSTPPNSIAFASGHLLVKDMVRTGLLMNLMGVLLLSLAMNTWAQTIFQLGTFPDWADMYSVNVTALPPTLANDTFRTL

ceNaCT [1] = target: T2, ceNaCT (Caenorhabditis elegans, UniProt P32739, I91S/L182M); assay: ceNaCT in X. laevis oocytes: uptake and two-electrode voltage clamp; format: cell-based
T2 sequence (P32739 1-551 I91S/L182M): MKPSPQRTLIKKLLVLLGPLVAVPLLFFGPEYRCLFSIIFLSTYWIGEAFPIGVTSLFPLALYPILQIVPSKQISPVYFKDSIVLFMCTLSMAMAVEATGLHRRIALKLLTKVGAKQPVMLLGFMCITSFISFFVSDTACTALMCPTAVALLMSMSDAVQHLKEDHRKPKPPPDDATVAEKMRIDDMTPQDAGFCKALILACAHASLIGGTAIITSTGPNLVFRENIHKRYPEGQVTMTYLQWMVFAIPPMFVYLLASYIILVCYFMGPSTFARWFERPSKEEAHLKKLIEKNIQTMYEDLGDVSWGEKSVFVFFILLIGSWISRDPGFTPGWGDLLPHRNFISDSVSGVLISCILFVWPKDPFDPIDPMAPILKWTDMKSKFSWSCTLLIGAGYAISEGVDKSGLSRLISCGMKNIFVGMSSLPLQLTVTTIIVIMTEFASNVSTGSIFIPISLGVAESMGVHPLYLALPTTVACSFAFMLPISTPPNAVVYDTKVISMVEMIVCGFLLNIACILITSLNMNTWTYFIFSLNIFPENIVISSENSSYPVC
From the text: Electrophysiological studies of ceNaCT transport activity. Initially, ceNaCT cRNA prepared from the pSPORT-ceNaCT cDNA construct was used for functional expression of the transporter in X. laevis oocytes. These initial attempts were unsuccessful. Therefore, a X. laevis oocyte expression vector was used. The coding sequence of ceNaCT cDNA was amplified by PCR using the following primers: 5′-[…]-3′ (SEQ ID NO:23) (forward primer) and 5′-[…]-3′ (SEQ ID NO:24) (reverse primer). The forward primer contained the start codon and also an Xma I site introduced at the 5′-end for the purpose of subcloning. The reverse primer contained the termination codon and also a BamH I site at the 5′end for the purpose of subcloning. The PCR-derived ceNaCT coding fragment was then inserted into the Xma I/BamH I site in the oocyte expression vector pGHl9.

drIndy [2] = target: T3, drIndy (Drosophila melanogaster, UniProt Q9VVT2); assay: cell-based
T3 sequence (Q9VVT2 19-590): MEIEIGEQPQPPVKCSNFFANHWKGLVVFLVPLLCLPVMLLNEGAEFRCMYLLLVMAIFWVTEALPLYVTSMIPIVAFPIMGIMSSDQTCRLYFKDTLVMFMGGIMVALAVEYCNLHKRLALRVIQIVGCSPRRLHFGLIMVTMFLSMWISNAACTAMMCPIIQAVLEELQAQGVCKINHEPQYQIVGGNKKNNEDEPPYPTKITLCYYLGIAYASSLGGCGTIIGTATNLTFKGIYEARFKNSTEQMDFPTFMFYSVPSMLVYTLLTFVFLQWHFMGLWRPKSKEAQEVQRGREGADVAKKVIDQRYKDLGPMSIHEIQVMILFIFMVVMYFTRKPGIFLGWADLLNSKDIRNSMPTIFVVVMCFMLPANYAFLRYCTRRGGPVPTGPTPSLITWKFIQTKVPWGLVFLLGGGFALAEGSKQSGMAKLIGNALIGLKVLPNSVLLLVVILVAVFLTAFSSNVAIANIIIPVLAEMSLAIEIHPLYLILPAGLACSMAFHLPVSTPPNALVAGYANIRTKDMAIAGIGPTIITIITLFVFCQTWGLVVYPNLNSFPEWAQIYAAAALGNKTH

ceNaCT [3] = target: T2, ceNaCT; assay: Uptake via ceNaCT expressed in HRPE cells; conditions: for Competition with [^14C]citrate for ceNaCT-mediated uptake: competitor 2.5 mM, [14C]citrate 15 μM
drIndy [4] = target: T3, drIndy; conditions: succinate 0.1 μM
NaDC1 = conditions: cited from earlier work

| SMILES | Ki (hNaDC3) [µM] | Uptake in cRNA-injected vs water-injected oocytes (ceNaCT [1]; citrate 40 μM, pH 6.5) | Uptake of [^14C]citrate in ceNaCT cRNA-injected oocytes (ceNaCT [1]; citrate 40 μM, pH 6.5) [pmol/oocyte/15 min] | pH-dependent stimulation, pH 7.5 to 6.5 (ceNaCT [1]; citrate 250 μM) | Maximal current (Imax) (ceNaCT [1]; testing membrane potential −50 mV) [nA] | K0.5, concentration of citrate for half-maximal current (ceNaCT [1]; testing membrane potential −70 mV, pH 6.5) [µM] | Maximal current (Imax) (ceNaCT [1]; testing membrane potential −150 mV) [nA] | Ki (drIndy [2]) [µM] | Uptake in ceNaCT-expressing cells vs vector-transfected control cells (ceNaCT [3]; [14C]citrate 10 μM, Na+, pH 7.5) | Uptake of [^14C]citrate in cells expressing ceNaCT (ceNaCT [3]; citrate 10 μM, Na+, pH 7.5) [pmol/10^6 Cells/min] | Competition with [^14C]citrate for ceNaCT-mediated uptake (ceNaCT [3]) | Vmax for transport via ceNaCT (ceNaCT [3]; pH 7.5) [pmol/10^6 cells/min] | Uptake of radiolabelled succinate in drIndy cRNA-injected vs water-injected oocytes (drIndy [4]) [fold] | Michaelis-Menten constant for succinate, NaDC1 (NaDC1) [mM] | Km (ceNaCT [3]; read-out: Michaelis-Menten constant (Kt) for transport via ceNaCT, pH 7.5, 30 min) [µM] |
| --- | --- | --- | --- | --- | --- | --- | --- | --- | --- | --- | --- | --- | --- | --- | --- |
| O=C(O)CC(O)(CC(=O)O)C(=O)O [Citrate] | 2100 ± 300 | about 45 fold | 12.9±0.8 | about 1.25 fold | 12.3±0.6 | 34 ± 8 | 61.1±2.6 | 105 ± 35 | approximately 45 fold | 61±5 | potent inhibitor | 270±13 |  |  |  |
| O=C(O)CCC(=O)O [Succinate, succinate] |  |  |  |  |  |  |  |  |  |  | inhibited markedly | 210±8 | 12 | 0.1 to 4.0 | 88 ± 13 |
